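Test compounds were applied to cells in 96-well plates for 48 hours at 5 doses. GI50 marks 50% less growth.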 Active and inactive are the calls of the source. No stated cut-off is given here; in the data, active = GI50 up to about 1.1 µM and inactive = higher.
Key:
Test in all cases: NCI-60 cell line screen, 48 h
NCI-H23 = system: NCI-H23
CAKI-1 = system: CAKI-1
SK-MEL-28 = system: SK-MEL-28
MCF7 = system: MCF7
MDA-MB-231 = system: MDA-MB-231
MDA-N = system: MDA-N
K562 = system: K562
UO-31 = system: UO-31
HOP-92 = system: HOP-92
SNB-75 = system: SNB-75
SK-OV-3 = system: SK-OV-3
NCI-H522 = system: NCI-H522
SF-539 = system: SF-539
PC-3 = system: PC-3
SN12C = system: SN12C
COLO 205 = system: COLO 205
HCC 2998 = system: HCC 2998
A498 = system: A498
RXF 393 = system: RXF 393
BT-549 = system: BT-549
SF-295 = system: SF-295
OVCAR-3 = system: OVCAR-3
HCT-116 = system: HCT-116
M14 = system: M14
MDA-MB-435 = system: MDA-MB-435
HCT-15 = system: HCT-15
SNB-19 = system: SNB-19
HOP-62 = system: HOP-62
EKVX = system: EKVX
A549 = system: A549
NCI/ADR-RES = system: NCI/ADR-RES
UACC-257 = system: UACC-257
IGROV-1 = system: IGROV-1
LOX IMVI = system: LOX IMVI
RPMI-8226 = system: RPMI-8226
U-251 = system: U-251
SW-620 = system: SW-620
Hs-578T = system: Hs-578T
NCI-H226 = system: NCI-H226
NCI-H460 = system: NCI-H460
OVCAR-4 = system: OVCAR-4
SK-MEL-2 = system: SK-MEL-2
ACHN = system: ACHN
SF-268 = system: SF-268
KM12 = system: KM12
OVCAR-8 = system: OVCAR-8
HT-29 = system: HT-29
T47D = system: T47D
UACC-62 = system: UACC-62
Malme-3M = system: Malme-3M
786-0 = system: 786-0
OVCAR-5 = system: OVCAR-5
TK-10 = system: TK-10
HL-60 = system: HL-60
DU-145 = system: DU-145
SK-MEL-5 = system: SK-MEL-5
SR = system: SR
CCRF-CEM = system: CCRF-CEM
MOLT-4 = system: MOLT-4

## Nc1[nH]c(=O)[nH]c(=O)c1Cc1cccc(Cl)c1
NCI-H23
  GI50: > 100 µM (inactive)
CAKI-1
  GI50: > 100 µM (inactive)
SK-MEL-28
  GI50: > 100 µM (inactive)
MCF7
  GI50: 17.9 µM (inactive)
MDA-MB-231
  GI50: > 100 µM (inactive)
MDA-N
  GI50: 41 µM (inactive)
K562
  GI50: 63.5 µM (inactive)
UO-31
  GI50: 26.2 µM (inactive)
HOP-92
  GI50: 36.3 µM (inactive)
SNB-75
  GI50: 58.7 µM (inactive)
SK-OV-3
  GI50: > 100 µM (inactive)
NCI-H522
  GI50: 88.9 µM (inactive)
SF-539
  GI50: > 100 µM (inactive)
PC-3
  GI50: 52.7 µM (inactive)
SN12C
  GI50: > 100 µM (inactive)
COLO 205
  GI50: > 100 µM (inactive)
HCC 2998
  GI50: 56 µM (inactive)
A498
  GI50: > 100 µM (inactive)
RXF 393
  GI50: 87.3 µM (inactive)
BT-549
  GI50: 75.2 µM (inactive)
SF-295
  GI50: > 100 µM (inactive)
OVCAR-3
  GI50: > 100 µM (inactive)
HCT-116
  GI50: 45.5 µM (inactive)
M14
  GI50: 84.9 µM (inactive)
MDA-MB-435
  GI50: 44 µM (inactive)
HCT-15
  GI50: 84.9 µM
SNB-19
  GI50: > 100 µM (inactive)
HOP-62
  GI50: > 100 µM (inactive)
EKVX
  GI50: > 100 µM (inactive)
A549
  GI50: > 100 µM (inactive)
NCI/ADR-RES
  GI50: > 100 µM (inactive)
UACC-257
  GI50: 51.9 µM (inactive)
IGROV-1
  GI50: 56.9 µM (inactive)
LOX IMVI
  GI50: 54.7 µM (inactive)
RPMI-8226
  GI50: 79.6 µM (inactive)
U-251
  GI50: > 100 µM (inactive)
SW-620
  GI50: 96.2 µM (inactive)
Hs-578T
  GI50: 39.6 µM (inactive)
NCI-H226
  GI50: > 100 µM (inactive)
NCI-H460
  GI50: 56.8 µM (inactive)
OVCAR-4
  GI50: 57.9 µM (inactive)
SK-MEL-2
  GI50: 71.9 µM (inactive)
ACHN
  GI50: > 100 µM (inactive)
SF-268
  GI50: 38.3 µM (inactive)
KM12
  GI50: 80.5 µM (inactive)
OVCAR-8
  GI50: > 100 µM (inactive)
HT-29
  GI50: > 100 µM (inactive)
T47D
  GI50: 39 µM (inactive)
UACC-62
  GI50: 34.4 µM (inactive)
Malme-3M
  GI50: > 100 µM (inactive)
786-0
  GI50: > 100 µM (inactive)
OVCAR-5
  GI50: > 100 µM (inactive)
TK-10
  GI50: 63.7 µM (inactive)

## C[C@H]1[C@@H](c2ccccc2)O[B-](c2ccccc2)(c2ccccc2)[N+]1(C)C
HL-60
  GI50: > 100 µM (inactive)
NCI-H23
  GI50: 70.1 µM (inactive)
CAKI-1
  GI50: 34.3 µM (inactive)
SK-MEL-28
  GI50: 48 µM (inactive)
MDA-MB-231
  GI50: 21.4 µM (inactive)
MDA-N
  GI50: 48.8 µM (inactive)
K562
  GI50: 48.5 µM (inactive)
UO-31
  GI50: 19.3 µM (inactive)
HOP-92
  GI50: 23.8 µM (inactive)
SK-OV-3
  GI50: > 100 µM (inactive)
NCI-H522
  GI50: 35.7 µM (inactive)
SF-539
  GI50: 33.3 µM (inactive)
PC-3
  GI50: < 0.01 µM (active)
SN12C
  GI50: 99.3 µM (inactive)
COLO 205
  GI50: 16.1 µM (inactive)
DU-145
  GI50: 57 µM (inactive)
A498
  GI50: 86.1 µM (inactive)
RXF 393
  GI50: 45.5 µM (inactive)
BT-549
  GI50: 33.5 µM (inactive)
SF-295
  GI50: 32.6 µM (inactive)
OVCAR-3
  GI50: 40.6 µM (inactive)
HCT-116
  GI50: 49.7 µM (inactive)
M14
  GI50: 27.7 µM (inactive)
MDA-MB-435
  GI50: 61.8 µM (inactive)
HCT-15
  GI50: 38.4 µM
SNB-19
  GI50: > 100 µM (inactive)
HOP-62
  GI50: > 100 µM (inactive)
EKVX
  GI50: > 100 µM (inactive)
SK-MEL-5
  GI50: 28.1 µM (inactive)
A549
  GI50: 74.1 µM (inactive)
NCI/ADR-RES
  GI50: 76.7 µM (inactive)
UACC-257
  GI50: 84.1 µM (inactive)
IGROV-1
  GI50: > 100 µM (inactive)
LOX IMVI
  GI50: > 100 µM (inactive)
RPMI-8226
  GI50: 31.3 µM (inactive)
U-251
  GI50: > 100 µM (inactive)
SW-620
  GI50: 56.5 µM (inactive)
Hs-578T
  GI50: 51.9 µM (inactive)
NCI-H226
  GI50: 37.7 µM (inactive)
NCI-H460
  GI50: > 100 µM (inactive)
OVCAR-4
  GI50: > 100 µM (inactive)
SR
  GI50: 21.5 µM (inactive)
SK-MEL-2
  GI50: > 100 µM (inactive)
ACHN
  GI50: 34.3 µM (inactive)
SF-268
  GI50: > 100 µM (inactive)
KM12
  GI50: > 100 µM (inactive)
OVCAR-8
  GI50: 79.3 µM (inactive)
CCRF-CEM
  GI50: > 100 µM (inactive)
HT-29
  GI50: 10 µM (inactive)
T47D
  GI50: 34.7 µM (inactive)
UACC-62
  GI50: 52 µM (inactive)
MOLT-4
  GI50: 43.6 µM (inactive)
Malme-3M
  GI50: 54.8 µM (inactive)
786-0
  GI50: 78.2 µM (inactive)
OVCAR-5
  GI50: > 100 µM (inactive)
TK-10
  GI50: 36.3 µM (inactive)

From ChEMBL document CHEMBL1201862, “PubChem BioAssay data set” (2004)
